pKi: −log10 of the molar value.
Assays:
[1] = target: T1, Suppressor of tumorigenicity 14 protein (Homo sapiens, UniProt Q9Y5Y6); test: Inhibition of matriptase
T1 sequence (Q9Y5Y6 whole entry): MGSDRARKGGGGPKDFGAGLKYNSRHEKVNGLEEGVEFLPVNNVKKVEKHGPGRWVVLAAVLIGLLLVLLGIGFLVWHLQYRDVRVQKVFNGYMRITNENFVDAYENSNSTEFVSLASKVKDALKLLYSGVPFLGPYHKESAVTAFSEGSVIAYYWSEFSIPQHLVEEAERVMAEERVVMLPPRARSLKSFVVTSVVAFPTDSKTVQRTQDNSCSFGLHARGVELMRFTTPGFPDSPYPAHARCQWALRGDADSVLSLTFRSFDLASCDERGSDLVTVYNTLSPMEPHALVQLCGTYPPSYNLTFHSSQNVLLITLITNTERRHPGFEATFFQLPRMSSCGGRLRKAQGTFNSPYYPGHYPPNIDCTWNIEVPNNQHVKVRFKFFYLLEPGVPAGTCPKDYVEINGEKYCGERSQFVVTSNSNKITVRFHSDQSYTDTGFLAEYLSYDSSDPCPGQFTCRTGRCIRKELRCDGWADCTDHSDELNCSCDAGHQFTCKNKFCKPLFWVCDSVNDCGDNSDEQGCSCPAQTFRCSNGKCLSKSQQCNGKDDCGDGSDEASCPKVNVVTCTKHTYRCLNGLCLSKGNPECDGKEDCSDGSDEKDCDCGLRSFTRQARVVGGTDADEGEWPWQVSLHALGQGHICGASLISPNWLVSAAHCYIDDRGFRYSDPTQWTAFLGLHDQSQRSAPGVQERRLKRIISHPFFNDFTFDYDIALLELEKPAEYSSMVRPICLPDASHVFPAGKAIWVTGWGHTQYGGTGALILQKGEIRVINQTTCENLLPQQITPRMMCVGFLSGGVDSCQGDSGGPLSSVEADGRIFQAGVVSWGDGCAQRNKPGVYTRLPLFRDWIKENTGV

Coagulation factor X = Coagulation factor X (Homo sapiens, UniProt P00742); test: Inhibition of factor 10a
Plasminogen = Plasminogen (Homo sapiens, UniProt P00747); test: Inhibition of plasmin
Prothrombin = Prothrombin (Homo sapiens, UniProt P00734); test: Inhibition of thrombin
[2] = target: Urokinase-type plasminogen activator (Homo sapiens, UniProt P00749); test: Inhibition of uPA

Chain of Coagulation factor X (P00742 41-179 limits assumed): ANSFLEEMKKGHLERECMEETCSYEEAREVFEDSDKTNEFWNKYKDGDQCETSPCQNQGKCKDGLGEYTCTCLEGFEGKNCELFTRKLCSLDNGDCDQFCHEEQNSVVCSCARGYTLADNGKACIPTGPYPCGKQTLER
Chain of Coagulation factor X (P00742 235-488 limits assumed): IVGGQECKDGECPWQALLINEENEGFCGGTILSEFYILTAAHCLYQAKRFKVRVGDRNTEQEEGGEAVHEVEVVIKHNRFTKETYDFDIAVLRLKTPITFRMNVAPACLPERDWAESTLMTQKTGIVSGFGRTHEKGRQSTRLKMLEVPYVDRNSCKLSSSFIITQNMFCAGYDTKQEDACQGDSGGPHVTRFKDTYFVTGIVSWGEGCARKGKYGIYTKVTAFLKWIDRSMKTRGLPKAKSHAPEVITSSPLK
Chain of Plasminogen (P00747 97-580 limits assumed): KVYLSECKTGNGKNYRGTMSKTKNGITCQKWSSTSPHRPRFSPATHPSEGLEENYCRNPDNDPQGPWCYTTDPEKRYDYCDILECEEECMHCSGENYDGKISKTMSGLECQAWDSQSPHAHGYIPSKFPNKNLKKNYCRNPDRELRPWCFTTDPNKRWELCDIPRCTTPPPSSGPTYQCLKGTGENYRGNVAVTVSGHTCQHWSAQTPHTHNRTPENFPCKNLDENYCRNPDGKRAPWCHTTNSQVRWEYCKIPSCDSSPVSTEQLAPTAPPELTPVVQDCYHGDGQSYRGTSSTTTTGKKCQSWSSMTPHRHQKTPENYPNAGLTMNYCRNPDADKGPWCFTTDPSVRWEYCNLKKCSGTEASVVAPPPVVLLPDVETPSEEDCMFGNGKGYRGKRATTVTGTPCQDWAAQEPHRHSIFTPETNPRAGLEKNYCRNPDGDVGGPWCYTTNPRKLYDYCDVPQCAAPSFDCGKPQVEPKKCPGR
Chain of Plasminogen (P00747 581-810 limits assumed): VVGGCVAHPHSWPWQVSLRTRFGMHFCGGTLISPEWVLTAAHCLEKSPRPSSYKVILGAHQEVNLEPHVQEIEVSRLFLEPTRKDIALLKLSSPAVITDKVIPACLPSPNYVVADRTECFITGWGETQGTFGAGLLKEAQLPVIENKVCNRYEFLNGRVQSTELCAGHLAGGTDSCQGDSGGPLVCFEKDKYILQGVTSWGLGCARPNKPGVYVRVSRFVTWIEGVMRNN

Row | Compound | pKi [1] | pKi (Coagulation factor X) | pKi (Plasminogen) | pKi (Prothrombin) | pKi [2]
1 | N=C(N)c1cccc(C[C@H](NS(=O)(=O)c2cccc(NC(=O)CCN)c2)C(=O)N2CCC(CCN)CC2)c1 | 8.42 | – | – | – | –
2 | NCCC(=O)Nc1cccc(S(=O)(=O)N[C@@H](CCc2ccccc2)C(=O)N2CCC(CCN)CC2)c1 | < 3.00 | – | – | – | –
3 | NCCC(=O)Nc1cccc(S(=O)(=O)N[C@@H](Cc2cccc(CN)c2)C(=O)N2CCC(CCN)CC2)c1 | – | 4.04 | 4.80 | < 3.00 | < 3.00
4 | N=C(N)c1cccc(C[C@H](NS(=O)(=O)c2cccc(-c3ccc(N)nc3)c2)C(=O)N2CCC(CCN)CC2)c1 | 8.80 | 6.60 | 6.64 | 6.96 | 5.44
5 | CCC(=O)Nc1cccc(S(=O)(=O)N[C@@H](Cc2cccc(C(=N)N)c2)C(=O)N2CCC(CCN)CC2)c1 | 6.74 | 4.70 | 5.46 | 5.72 | 5.09
6 | CCOC(=O)Nc1cccc(S(=O)(=O)N[C@@H](Cc2cccc(C(=N)N)c2)C(=O)N2CCC(CCN)CC2)c1 | 7.39 | 4.85 | 5.68 | 5.92 | 5.49
7 | N=C(N)c1cccc(C[C@H](NS(=O)(=O)c2cccc(NC(=O)C3CNC3)c2)C(=O)N2CCC(CCN)CC2)c1 | 8.52 | 4.95 | 6.30 | 5.29 | 5.43
8 | NCCC(=O)Nc1cccc(S(=O)(=O)N[C@@H](Cc2ccc(CN)cc2)C(=O)N2CCC(CCN)CC2)c1 | 5.55 | 3.37 | 4.19 | 3.49 | < 3.00
9 | N=C(N)c1cccc(C[C@H](NS(=O)(=O)c2cccc(CCCCN)c2)C(=O)N2CCC(CCN)CC2)c1 | 9.00 | 5.36 | 6.70 | 6.34 | 5.42
10 | N=C(N)c1cccc(C[C@H](NS(=O)(=O)c2cccc(C3CCC(N)=NC3)c2)C(=O)N2CCC(CCN)CC2)c1 (stereo partly specified) | 10.10 | 8.00 | 7.55 | 6.28 | 5.18
11 | N=C(N)c1cccc(C[C@H](NS(=O)(=O)c2cccc(NCCCN)c2)C(=O)N2CCC(CCN)CC2)c1 | 8.17 | 5.10 | 6.34 | 5.66 | 5.28
12 | Cc1nccc(-c2cccc(S(=O)(=O)N[C@@H](Cc3cccc(C(=N)N)c3)C(=O)N3CCC(CCN)CC3)c2)n1 | – | 5.77 | 6.68 | 6.51 | 5.06
13 | N=C(N)c1cccc(C[C@H](NS(=O)(=O)c2cccc(NC(=O)CCO)c2)C(=O)N2CCC(CCN)CC2)c1 | – | 4.21 | 5.59 | 5.26 | 5.52
14 | NCCC(=O)Nc1cccc(S(=O)(=O)N[C@@H](Cc2ccccc2)C(=O)N2CCC(CCN)CC2)c1 | 5.00 | – | – | – | –
15 | NCCC(=O)Nc1cccc(S(=O)(=O)N[C@@H](CCCc2ccccc2)C(=O)N2CCC(CCN)CC2)c1 | < 3.00 | – | – | – | –
16 | COc1ccc(-c2cccc(S(=O)(=O)NC(Cc3cccc(C(=N)N)c3)C(=O)N3CCC(CCN)CC3)c2)cc1OC (racemic) | – | 6.38 | 6.64 | 5.96 | 4.85
17 | COc1ccc(-c2cccc(S(=O)(=O)NC(Cc3cccc(C(=N)N)c3)C(=O)N3CCC(CCN)CC3)c2)cc1 (racemic) | 8.15 | 6.44 | 6.92 | 7.40 | 5.00
18 | CCc1ccc(-c2cccc(S(=O)(=O)NC(Cc3cccc(C(=N)N)c3)C(=O)N3CCC(CCN)CC3)c2)cc1 (racemic) | – | 6.20 | 6.67 | 7.48 | 5.16
19 | N=C(N)c1cccc(CC(NS(=O)(=O)c2cccc(-c3ccccc3)c2)C(=O)N2CCC(CCN)CC2)c1 (racemic) | 6.96 | 5.27 | 6.26 | 7.25 | 5.08
20 | COc1ccc(-c2cccc(S(=O)(=O)NC(Cc3cccc(CN)c3)C(=O)N3CCC(CCN)CC3)c2)cc1 (racemic) | – | 4.26 | 6.11 | 5.01 | 3.89
21 | N=C(N)c1cccc(CC(NS(=O)(=O)c2cccc(-c3cccc(Cl)c3)c2)C(=O)N2CCC(CCN)CC2)c1 (racemic) | – | 5.25 | 6.48 | 7.29 | 4.92
22 | N=C(N)c1cccc(CC(NS(=O)(=O)c2cccc(-c3ccncc3)c2)C(=O)N2CCC(CCN)CC2)c1 (racemic) | – | 5.80 | 6.96 | 6.80 | 5.43
23 | N=C(N)c1cccc(CC(NS(=O)(=O)c2cccc(-c3cccnc3)c2)C(=O)N2CCC(CCN)CC2)c1 (racemic) | – | 5.46 | 6.00 | 6.82 | 4.96
24 | CC(C)Oc1ccc(-c2cccc(S(=O)(=O)NC(Cc3cccc(C(=N)N)c3)C(=O)N3CCC(CCN)CC3)c2)cc1 (racemic) | – | 5.47 | 7.10 | 6.62 | 5.02
25 | N=C(N)c1cccc(CC(NS(=O)(=O)c2cccc(-c3ccc4[nH]ccc4c3)c2)C(=O)N2CCC(CCN)CC2)c1 (racemic) | – | 6.82 | 6.42 | 6.72 | 5.21
26 | N=C(N)c1cccc(CC(NS(=O)(=O)c2cccc(-c3ccccc3Cl)c2)C(=O)N2CCC(CCN)CC2)c1 (racemic) | – | 6.15 | 7.07 | 7.96 | 4.92
27 | N=C(N)c1cccc(CC(NS(=O)(=O)c2cccc(-c3ccc(Cl)cc3)c2)C(=O)N2CCC(CCN)CC2)c1 (racemic) | – | 6.04 | 6.74 | 8.00 | 4.96
28 | CCOc1ccc(-c2cccc(S(=O)(=O)NC(Cc3cccc(C(=N)N)c3)C(=O)N3CCC(CCN)CC3)c2)cc1 (racemic) | 8.22 | 6.18 | 6.82 | 6.35 | 5.07

Source: ChEMBL document CHEMBL1139302, “Modification of the N-terminal sulfonyl residue in 3-amidinophenylalanine-based matriptase inhibitors” (Bioorg Med Chem Lett, 2009)
